The results in this text go back to a melting point compilation (Tetko et al.).

`CC(C)(C)c1cc2c(O)c(c1)Cc1cc(C(C)(C)C)cc(c1O)Cc1cc(C(C)(C)C)cc(c1O)Cc1cc(C(C)(C)C)cc(c1O)Cc1cc(C(C)(C)C)cc(c1O)Cc1cc(C(C)(C)C)cc(c1O)C2` had a melting point of 300 °C.

Molecule `CC(=O)c1cc(C#N)c(=O)[nH]c1C` gave a melting point of 230 to 232 °C.

Consider `Cc1onc(-c2ccccc2)c1I`, for which the melting point was in the range of 104 to 105 °C.

Molecule `COc1cc(CCl)ccc1OCc1ccccc1` showed a melting point of 73 °C.

Molecule `ClC1CCC(Cl)CC1` (centres undefined) showed a melting point of 18 °C.

`FC(F)(F)C(F)(F)C(F)(F)C(F)(F)I` registered a melting point of -68 °C.

In turn, `CN=NC` came in with a melting point of -78 °C.

In the case of `N=C(N)C(F)(F)C(F)(F)C(F)(F)F`, the melting point is 49 to 51 °C.

Molecule `C=C1C(=O)C23C4CC5C(C)(C)CCC(OC(C)=O)C5(C(=O)O4)C2C(OC(C)=O)CC1C3OC(C)=O` (centres undefined) yielded a melting point of 230 °C.

In turn, `CCC(C)OC(=O)C1=C2c3ncccc3ON2C(Cl)C(Cl)C1Cl` (centres undefined) had a melting point of 97 °C.

Regarding `O=c1[nH]cc(C(F)(F)F)cc1[N+](=O)[O-]`, the melting point was in the range of 189 to 190 °C.

As to `CCc1c(C)[nH]c2c1C(=O)C(CN1CCOCC1)CC2` (centres undefined), the melting point amounted to 180 °C.

As to `O=[N+]([O-])c1cccc2nsnc12`, the melting point was in the range of 106 to 110 °C.

For the molecule `BrCc1cccc(-c2cccs2)c1`, the melting point is 57 °C.

The molecule `O=Cc1ccc(CN2C(=O)c3ccccc3C2=O)o1` yielded a melting point of 125 to 126 °C.

`Nc1nc(-c2ccc(Br)cc2)cc(C(F)(F)F)n1` came in with a melting point of 216 to 218 °C.

With `NC(Cc1ccc([N+](=O)[O-])cc1)C(=O)O` (racemic), the melting point lay within 236 to 237 °C.

In turn, `Cn1c(=O)c(C2=NNC(=O)C2=NNc2ccc([N+](=O)[O-])cc2)c(O)c2ccccc21` displayed a melting point of 300 °C.

Molecule `O=C(NC(=O)c1c(F)cccc1F)Nc1cc(Cl)c(F)c(Cl)c1F` showed a melting point of 225 °C.

Molecule `CC(C)(C)OC(=O)NCCC(=O)O` yielded a melting point of 75 °C.

Regarding `O=C(Nc1ccccc1)OC1C=CC=CCC1OC(=O)Nc1ccccc1` (centres undefined), the melting point is 179 to 180 °C.

The molecule `O=C1N=NC(=O)c2cc3c(cc21)CCC3` yielded a melting point of 310 °C.

Molecule `O=C1C=C(NCc2ccncc2)C(=O)c2ccccc21` registered a melting point of 166 °C.

`O=C(Nc1ccccc1CCCCc1ccccc1NC(=O)c1ccccc1)c1ccccc1` came in with a melting point of 210 to 211 °C.

Molecule `Clc1c(Cl)c(Cl)c2c(oc3c(Cl)c(Cl)c(Cl)c(Cl)c32)c1Cl` gave a melting point of 258 °C.

In turn, `O=C(O)C1=CCCCC1` registered a melting point of 38 °C.

Consider `CC12CCCC1C1CCC3CCCCC3(C)C1CC2` (centres undefined), for which the melting point was determined as 50.2 °C.

Turning to `O=[N+]([O-])c1ccccc1/C=C(/Cl)c1ccccn1`, the melting point fell in the range of 60.5 to 61 °C.

Turning to `CN(CC(=O)O)C(=N)N`, the melting point came out at 255 °C.

As to `O=S(=O)(Cl)c1c(Cl)nc2sccn12`, the melting point fell in the range of 137 to 139 °C.

Take `CC12CCC(O)CC1CCC1C2CCC2(C)C(C3=CC(=O)OC3)C(O)CC12O` (centres undefined): the melting point was 234 °C.

The molecule `Nc1cccc(-n2cccc2)c1` returned a melting point of 43 to 44 °C.

`CN1CCN2c3ncccc3Cc3ccccc3C2C1` (centres undefined): the melting point came out at 115 °C.

For the molecule `O=C(O)[C@@H]1CCN1`, the melting point was in the range of 206 to 207 °C.

As for `O=c1n(CCO)c(=O)n(CCO)c(=O)n1CCO`, the melting point stood at 138 °C.

Consider `CCOC(=O)/C(C#N)=C/c1ccc(-c2ccc(Br)cc2)o1`, for which the melting point stood at 167 °C.

`O=[N+]([O-])c1ccc(N=C=Nc2ccc([N+](=O)[O-])cc2)cc1` came in with a melting point of 166 to 168 °C.

The molecule `O=C(c1ccccc1)C1C(=O)c2ccccc2C1=O` displayed a melting point of 108 to 112 °C.

The molecule `Cc1c(N)cc([N+](=O)[O-])cc1C(N)=O` returned a melting point of 199 °C.

As to `O=C1Nc2ccccc2CCC1Br` (centres undefined), the melting point was 164 to 168 °C.

The molecule `CSC#N` registered a melting point of -5 °C.

On to `O=Cc1cnc2ccccc2c1`, for which the melting point was in the range of 68 to 71 °C.

With `Cn1ccc(-c2ccc(Br)cc2)n1`, the melting point fell in the range of 79.5 to 81 °C.

For the molecule `CCOC(=O)c1cc2ccccc2o1`, the melting point was 30.5 °C.

With `COc1ccc(C(=O)OC2Cc3ccccc32)cc1` (centres undefined), the melting point is 124 °C.

`CSc1nc(N)c2ccccc2n1` showed a melting point of 233 to 235 °C.

The molecule `OCCCc1ccccn1` displayed a melting point of 34 °C.

`CCCCCCCCCCCCCCCCC(C)C` showed a melting point of 15 °C.

For `O=C(O)c1ccc2c(c1)CCCN2`, the melting point was in the range of 168 to 170 °C.

The molecule `CC(=O)Nc1ccc(CC#N)cc1` registered a melting point of 82 to 83 °C.

In the case of `CCc1ccccc1NCN1C(=O)c2ccccc2C1=O`, the melting point is 104 °C.

Regarding `COc1ccc(C=O)c(C)c1C`, the melting point was determined as 53 °C.

`O=[N+]([O-])c1cc(Cl)ccc1S(=O)(=O)c1ccccc1` registered a melting point of 115 to 117 °C.

For the molecule `O=CC=Cc1ccc([N+](=O)[O-])o1`, the melting point was found to be 118 °C.

Regarding `O=C(NCCO)C1CCCNC1` (centres undefined), the melting point is 119 °C.

In turn, `N#Cc1coc2ccccc2c1=O` had a melting point of 174 to 178 °C.

`COC(=O)CCc1ccc2c(c1)CCC(=O)N2`: the melting point came out at 134 °C.

Molecule `CC(=O)CC(c1ccco1)c1c(O)c2ccccc2oc1=O` (centres undefined) had a melting point of 124 °C.

Turning to `CC(O)CC(C)(C)C` (centres undefined), the melting point was -60 °C.

For `CC(C)(C)c1cc(C(C)(C)C)n(-c2ccc(N)cc2)n1`, the melting point lay in the range of 205 to 207 °C.

In turn, `CCCCCCCCCCCCCCCCC(CCC)c1ccccc1` (centres undefined) showed a melting point of 31.4 °C.

For the molecule `OCN(CO)c1nc(N(CO)CO)nc(N(CO)CO)n1`, the melting point was 137 °C.

Molecule `O=C(Cc1ccc(-c2ccccc2)cc1)Nc1ccccn1` gave a melting point of 122 °C.

`CCC(c1ccc(O)cc1)C(CC)c1ccc(O)cc1` (centres undefined): the melting point was found to be 187 °C.

Take `O=[N+]([O-])c1ccccc1/C=C/c1ccccc1`: the melting point turned out to be 73 °C.

For the molecule `NC(=O)NN=Cc1cccc2c(Br)cccc12`, the melting point was in the range of 257 to 259 °C.

Turning to `CCCCCCCCCCCCCCCCCCN(C)C`, the melting point was 22.9 °C.

With `NC(=O)c1ccc(Cl)nc1`, the melting point was 215 °C.

Regarding `C/C=C/Br`, the melting point was -77 °C.

`O=C(O)c1cc(F)cc([N+](=O)[O-])c1` returned a melting point of 125 °C.

As to `N#Cc1cc(Cl)ccc1[N+](=O)[O-]`, the melting point was 89 to 94 °C.

`CCCOC1CCC2C3CCC4=CC(O)CCC4(C)C3CCC12C` (centres undefined) showed a melting point of 123 to 127 °C.

`O=C(O)C1CCN(c2ccc(C(F)(F)F)cn2)CC1` had a melting point of 162 to 164 °C.

Regarding `O=C(Oc1c(F)c(F)c(F)c(F)c1F)c1ccncc1`, the melting point lay in the range of 47.5 to 55.5 °C.

`COc1cc2c(cc1OC)C(CCc1ccc(Cl)cc1)N(C)CC2` (centres undefined) showed a melting point of 110 °C.

Regarding `Clc1cc(I)ccn1`, the melting point turned out to be 43 °C.

For `O=[N+]([O-])c1ccccc1C=Cc1cc(/C=C/c2ccccc2[N+](=O)[O-])c([N+](=O)[O-])cc1[N+](=O)[O-]`, the melting point worked out at 291 °C.

For `Cc1cc(C)c(CC(=O)c2oc3ccccc3c2NC(=O)c2ccccc2)c(C)c1`, the melting point is 198 to 199 °C.

Consider `COc1ccc2c3c1OC1CC(O)C=CC31CCN(C)C2` (centres undefined), for which the melting point was 126 °C.

Regarding `Brc1c2ccccc2cc2ccccc12`, the melting point amounted to 100 °C.

Molecule `BrCc1ccccc1COc1ccccc1` returned a melting point of 53 to 59 °C.

On to `O=C(O)C1CCCN(C(=O)OCc2ccccc2)C1` (centres undefined), for which the melting point was 90 to 94 °C.

Turning to `Nc1ccc([N+](=O)[O-])c2c1C(=O)c1c(Cl)ccc(Cl)c1C2=O`, the melting point turned out to be 307 °C.

Consider `CC(NC(=O)COCCN1C(=O)c2ccccc2C1=O)C(=O)NC(CCC(=O)O)C(=O)O` (centres undefined), for which the melting point lay within 192 to 195 °C.

In turn, `c1ccc2c(c1)oc1ccccc12` came in with a melting point of 86.5 °C.

Molecule `C=CC(=O)Oc1c(Br)cc(Cl)c2cccnc12` returned a melting point of 100 °C.

Regarding `O=C1NN(c2ccccc2)C(=O)C1c1ccccc1` (centres undefined), the melting point came out at 233 °C.

On to `Cc1nc(-c2cccc(C(=O)O)c2)no1`, for which the melting point was 223 to 225 °C.

For `COc1ccccc1NC(N)=S`, the melting point came out at 156 °C.

For the molecule `O=C(O)C=Cc1ccccc1Cl`, the melting point fell in the range of 209 to 212 °C.

Regarding `OCc1ccccc1Cc1ccccc1`, the melting point lay in the range of 37 to 41 °C.

In turn, `Clc1cc(Cl)c2ccccc2c1` gave a melting point of 62.3 °C.

Turning to `Cc1nn(C)c(C)c1C(=O)O`, the melting point was in the range of 218 to 219 °C.

On to `O=[N+]([O-])c1ccc2ccccc2c1`, for which the melting point turned out to be 79 °C.

As for `COc1ccccc1-c1ccc(/C=C2/C=C(CC(C)C)OC2=O)o1`, the melting point amounted to 89 °C.

On to `O=C(O)c1cncc(C(=O)O)c1`, for which the melting point was 324 °C.

As to `Cc1ccc(-c2csc(/C(C#N)=N\Nc3cc(Cl)ccc3Cl)n2)cc1`, the melting point turned out to be 187 °C.

As for `BrCCOc1ccccc1`, the melting point was 39 °C.

In turn, `C/C(=N\O)C1CC2(C)CCC1C2(C)C` (centres undefined) gave a melting point of 95.5 °C.

The molecule `CN(C)CCc1c[nH]c2ccccc12` registered a melting point of 46 °C.

For the molecule `OC(c1ccc(Cl)cc1)(c1cncnc1)c1ccccc1Cl` (centres undefined), the melting point worked out at 118 °C.

`O=[N+]([O-])c1ccc(-c2nnc(S)s2)o1`: the melting point was 175 to 177 °C.

With `Fc1cc(Br)ccc1Br`, the melting point was determined as 34 °C.

Turning to `Cc1cc(N)ccc1F`, the melting point was in the range of 35 to 37 °C.

Take `Cc1ccc2c(C)cccc2c1`: the melting point is -16.9 °C.

`Cc1ccc(C(=O)c2ccccc2C(=O)O)cc1[N+](=O)[O-]` yielded a melting point of 205 °C.

Regarding `Cc1nc(-c2ccc(C(=O)Cl)s2)cs1`, the melting point was 108 to 112 °C.

For `O=C(Cl)c1c(Cl)cccc1Cl`, the melting point amounted to 18 °C.

`CC(=O)c1nn(-c2ccccc2[N+](=O)[O-])c(=N)s1` came in with a melting point of 186 °C.

By melting point is commonly meant the temperature, or range, at which the solid turns liquid.
